# Experimental data published in ChEMBL document CHEMBL1157764, “Conserved high activity binding peptides are involved in adhesion of two detergent-resistant membrane-associated merozoite proteins to red blood cells during invasion” (J Med Chem, 2010).
# Where a SMILES comes first, the peptide text is derived from it.
# Organism: Homo sapiens
# Assay: Binding affinity to RBC membrane receptor in human RBCs assessed as specific binding activity measured as ratio of specifically bound peptide/added peptide by gamma counter
row,Compound,Activity [%]
1,H-EEIGDESTDSSSMEIQDSTSY-OH,> 2
2,H-RYNEMKRDANPDVYYIYLMD-OH,> 2
3,CC[C@H](C)[C@H](NC(=O)[C@H](Cc1ccc(O)cc1)NC(=O)[C@@H](N)CC(N)=O)C(=O)N[C@@H](CCC(=O)O)C(=O)N[C@@H](CCC(=O)O)C(=O)N1CCC[C@H]1C(=O)N[C@@H](Cc1ccccc1)C(=O)N[C@@H](CO)C(=O)N[C@H](C(=O)N[C@H](C(=O)N[C@@H](Cc1ccccc1)C(=O)N[C@H](C(=O)N[C@H](C(=O)N[C@@H](CC(C)C)C(=O)N[C@@H](CCC(N)=O)C(=O)N[C@H](C(=O)N[C@@H](CCC(N)=O)C(=O)N[C@@H](CCSC)C(=O)N[C@@H](CC(N)=O)C(=O)O)[C@@H](C)O)[C@@H](C)CC)[C@@H](C)O)[C@@H](C)O)[C@@H](C)O,> 2
4,H-EEQENEDSTDAEAIDKEEVEY-OH,> 2
5,H-LGYDNCTIEVNKTVNGIDWN-OH,> 2
6,H-VSKFDNNKTIGFVCPVKSSY-OH,> 2
7,CC[C@H](C)[C@H](NC(=O)[C@H](C)NC(=O)[C@H](CCC(=O)O)NC(=O)[C@H](C)NC(=O)[C@H](CC(=O)O)NC(=O)[C@@H](NC(=O)[C@H](CO)NC(=O)[C@H](CC(=O)O)NC(=O)[C@H](CCC(=O)O)NC(=O)[C@H](CC(=O)O)NC(=O)[C@H](CC(N)=O)NC(=O)[C@H](CCC(N)=O)NC(=O)[C@H](CCC(N)=O)NC(=O)[C@H](CC(C)C)NC(=O)[C@H](CCC(=O)O)NC(=O)[C@@H](N)CCC(=O)O)[C@@H](C)O)C(=O)N[C@@H](CC(=O)O)C(=O)N[C@@H](CCCCN)C(=O)N[C@@H](CCC(=O)O)C(=O)N[C@@H](CCC(=O)O)C(=O)N[C@H](C(=O)N[C@@H](CCC(=O)O)C(=O)N[C@@H](Cc1ccc(O)cc1)C(=O)O)C(C)C,> 2
8,H-TSEEKMILIFKCDNKFYITK-OH,> 2
9,H-YGKEFKWSDPKVIDVSNVIG-OH,> 2
10,H-ISLLLNKKYDSFEIKDVLED-OH,> 2
11,CC[C@H](C)[C@H](NC(=O)[C@@H](NC(=O)[C@H](CC(=O)O)NC(=O)[C@H](CC(N)=O)NC(=O)[C@H](Cc1cnc[nH]1)NC(=O)[C@@H](NC(=O)[C@H](Cc1ccc(O)cc1)NC(=O)[C@H](CS)NC(=O)[C@@H](N)CCCNC(=N)N)C(C)C)C(C)C)C(=O)N[C@@H](CCCCN)C(=O)N[C@@H](Cc1ccccc1)C(=O)NCC(=O)N[C@@H](CCC(=O)O)C(=O)N[C@@H](CCC(=O)O)C(=O)N[C@@H](CC(N)=O)C(=O)N[C@@H](CO)C(=O)N[C@@H](CC(C)C)C(=O)N[C@@H](CCCCN)C(=O)N[C@@H](CS)C(=O)N[C@@H](CO)C(=O)O,> 2
12,CC[C@H](C)[C@H](NC(=O)[C@@H]1CCCN1C(=O)[C@H](Cc1ccccc1)NC(=O)[C@H](Cc1cnc[nH]1)NC(=O)[C@H](Cc1ccccc1)NC(=O)[C@H](CCC(N)=O)NC(=O)[C@@H](NC(=O)[C@H](CCC(=O)O)NC(=O)[C@@H](NC(=O)[C@H](Cc1ccc(O)cc1)NC(=O)[C@H](CC(=O)O)NC(=O)[C@H](CCC(=O)O)NC(=O)[C@@H](N)CC(C)C)C(C)C)C(C)C)C(=O)N[C@@H](Cc1ccc(O)cc1)C(=O)N[C@@H](Cc1ccc(O)cc1)C(=O)N[C@H](C(=O)N[C@@H](CCCCN)C(=O)N[C@@H](Cc1ccccc1)C(=O)N[C@@H](CC(C)C)C(=O)N[C@@H](Cc1ccc(O)cc1)C(=O)O)[C@H](C)O,> 2
13,CC[C@H](C)[C@H](NC(=O)[C@H](CO)NC(=O)[C@H](CCCNC(=N)N)NC(=O)[C@@H](NC(=O)[C@@H](NC(=O)[C@@H](N)CCC(N)=O)[C@@H](C)O)[C@@H](C)CC)C(=O)N[C@@H](C(=O)N[C@@H](CC(C)C)C(=O)N[C@@H](CC(C)C)C(=O)N[C@@H](CS)C(=O)N[C@@H](CO)C(=O)N[C@@H](CC(N)=O)C(=O)N[C@@H](CC(C)C)C(=O)N[C@@H](Cc1cnc[nH]1)C(=O)N[C@@H](CC(=O)O)C(=O)N[C@@H](Cc1c[nH]c2ccccc12)C(=O)N[C@@H](CCCCN)C(=O)N[C@@H](CC(C)C)C(=O)N[C@@H](Cc1ccccc1)C(=O)N[C@@H](CS)C(=O)N[C@@H](Cc1ccc(O)cc1)C(=O)O)[C@@H](C)CC,> 2
14,H-NEQDENVKGMSSSQEMNSNNY-OH,> 2
15,H-TLVNNKENKEFVLKEKSSLTY-OH,> 2
16,H-MAVYNALYEKAQSYNLQKLF-OH,> 2

# Second part, the compound after the results:
row,Activity [%],Compound
1,> 2,CC(C)[C@H](NC(=O)[C@H](Cc1ccc(O)cc1)NC(=O)[C@@H](N)CCC(=O)O)C(=O)N[C@@H](CC(N)=O)C(=O)N[C@@H](C)C(=O)N[C@@H](CC(N)=O)C(=O)N[C@@H](CO)C(=O)N[C@@H](CO)C(=O)N[C@@H](CCC(=O)O)C(=O)N[C@@H](CO)C(=O)N[C@@H](CO)C(=O)N[C@@H](CCC(=O)O)C(=O)N[C@@H](CCC(=O)O)C(=O)N[C@@H](CC(=O)O)C(=O)N[C@H](C(=O)N[C@H](C(=O)N1CCC[C@H]1C(=O)N[C@@H](CC(N)=O)C(=O)N[C@@H](CCC(=O)O)C(=O)N[C@H](C(=O)O)[C@@H](C)O)[C@H](C)O)[C@@H](C)O
2,> 2,H-TYHLAIVKNEDKLQLAFTYD-OH
3,> 2,H-SEEANDENKDNMQTTTDEGTY-OH
4,> 2,H-MFAVNLKICIFLSLVSFLLQY-OH
5,> 2,H-NKTDNGSSFFFAMSNALLVIY-OH
6,< 2,CC[C@H](C)[C@H](NC(=O)[C@H](CCC(N)=O)NC(=O)CNC(=O)[C@H](C)NC(=O)[C@@H](N)CC(C)C)C(=O)N[C@@H](CC(N)=O)C(=O)NCC(=O)N[C@@H](CC(C)C)C(=O)N[C@@H](CC(N)=O)C(=O)N[C@@H](CC(=O)O)C(=O)N[C@@H](CC(C)C)C(=O)N[C@@H](Cc1ccc(O)cc1)C(=O)NCC(=O)N[C@@H](CCCNC(=N)N)C(=O)N[C@@H](CC(N)=O)C(=O)N[C@@H](CO)C(=O)N[C@@H](CCCCN)C(=O)N[C@@H](CCCCN)C(=O)N[C@H](C(=O)N[C@@H](Cc1ccc(O)cc1)C(=O)O)[C@@H](C)O
7,> 2,H-YMREIRLLGKCMLSFDEGNN-OH
8,> 2,H-KETQEKSDQEPSQNIQEDNSY-OH
9,> 2,CC[C@H](C)[C@H](NC(=O)[C@@H](N)CO)C(=O)N[C@@H](CCC(=O)O)C(=O)N[C@@H](C)C(=O)N[C@@H](CO)C(=O)N[C@@H](CCC(=O)O)C(=O)N[C@@H](CO)C(=O)N[C@@H](CO)C(=O)N[C@@H](CCC(N)=O)C(=O)N[C@@H](CCCCN)C(=O)N[C@@H](CC(=O)O)C(=O)N[C@@H](CCC(=O)O)C(=O)N[C@H](C(=O)N[C@@H](CCCCN)C(=O)N[C@@H](CCC(=O)O)C(=O)N[C@H](C(=O)N[C@@H](CCC(=O)O)C(=O)N[C@@H](CC(=O)O)C(=O)N[C@@H](CCCCN)C(=O)N[C@@H](CCC(=O)O)C(=O)N[C@@H](Cc1ccc(O)cc1)C(=O)O)[C@H](C)O)[C@@H](C)O
10,> 2,H-NYYISPFYDENSIKQEINKK-OH
11,> 2,H-EDGEKENKHKSSETTNETVTY-OH
12,> 2,H-DEKHAENEENVEQIETDSNVY-OH
13,> 2,H-TNTTPAVYSGSLLSMNNDFE-OH
14,> 2,H-NEDNKDLEHGSSNDVNNNTDY-OH
15,> 2,H-NYKSTYCVLSNNYRIVVEFD-OH
16,> 2,H-TEEKGKDEQKKDEQKEQDEEY-OH
17,< 2,CC[C@H](C)[C@H](NC(=O)[C@H](CC(=O)O)NC(=O)[C@H](CC(N)=O)NC(=O)[C@H](CC(N)=O)NC(=O)[C@@H](N)CCC(N)=O)C(=O)N[C@@H](CC(=O)O)C(=O)N[C@@H](Cc1cnc[nH]1)C(=O)N[C@@H](CO)C(=O)N[C@@H](CCC(=O)O)C(=O)N[C@@H](CC(=O)O)C(=O)N[C@@H](CCCCN)C(=O)N[C@@H](CCCCN)C(=O)N[C@@H](CC(C)C)C(=O)N[C@H](C(=O)N[C@@H](CO)C(=O)N[C@@H](CCCNC(=N)N)C(=O)N[C@H](C(=O)N[C@@H](CC(C)C)C(=O)N[C@@H](Cc1ccc(O)cc1)C(=O)N[C@@H](Cc1ccc(O)cc1)C(=O)O)C(C)C)[C@@H](C)CC
18,> 2,CC(C)C[C@H](NC(=O)[C@H](CC(N)=O)NC(=O)[C@H](CC(C)C)NC(=O)[C@@H]1CCCN1C(=O)[C@H](CC(N)=O)NC(=O)[C@H](CCCCN)NC(=O)[C@H](Cc1ccc(O)cc1)NC(=O)[C@@H](N)CS)C(=O)N[C@@H](CCCCN)C(=O)N[C@H](C(=O)N[C@@H](CC(C)C)C(=O)N[C@@H](CCC(=O)O)C(=O)N[C@H](C(=O)N[C@@H](CC(C)C)C(=O)N[C@@H](CC(C)C)C(=O)N[C@@H](CCCCN)C(=O)N[C@@H](CCCCN)C(=O)N[C@@H](CC(N)=O)C(=O)N[C@@H](Cc1ccc(O)cc1)C(=O)N[C@@H](Cc1ccc(O)cc1)C(=O)O)C(C)C)C(C)C
19,> 2,H-EKKDVKVSGNNNIAVVYSIF-OH
20,> 2,CC[C@H](C)[C@H](NC(=O)[C@H](CCC(=O)O)NC(=O)[C@H](CC(N)=O)NC(=O)[C@H](CC(N)=O)NC(=O)CNC(=O)[C@H](CC(N)=O)NC(=O)[C@H](CC(C)C)NC(=O)[C@H](CS)NC(=O)[C@H](CCC(N)=O)NC(=O)[C@@H](NC(=O)[C@H](CCC(=O)O)NC(=O)[C@H](CS)NC(=O)[C@H](Cc1cnc[nH]1)NC(=O)[C@H](CC(C)C)NC(=O)[C@@H](NC(=O)[C@H](Cc1ccc(O)cc1)NC(=O)[C@H](CC(C)C)NC(=O)[C@H](CC(N)=O)NC(=O)CNC(=O)[C@@H](N)CCC(N)=O)C(C)C)C(C)C)C(=O)O (H-QGNLYVLHCEVQCLNGNNEI-OH)
21,< 2,CC(C)C[C@H](NC(=O)[C@H](CC(C)C)NC(=O)[C@H](CO)NC(=O)[C@@H]1CCCN1C(=O)[C@@H](NC(=O)[C@H](CC(C)C)NC(=O)[C@H](Cc1ccc(O)cc1)NC(=O)[C@H](CO)NC(=O)[C@H](CCCCN)NC(=O)[C@H](CCCCN)NC(=O)[C@H](CCCCN)NC(=O)CNC(=O)[C@@H](NC(=O)[C@H](CO)NC(=O)[C@H](CS)NC(=O)[C@H](CCCCN)NC(=O)[C@H](Cc1cnc[nH]1)NC(=O)[C@H](Cc1ccc(O)cc1)NC(=O)[C@H](CC(=O)O)NC(=O)[C@@H](N)CO)C(C)C)[C@@H](C)O)C(=O)O
22,> 2,CC[C@H](C)[C@H](NC(=O)[C@H](CC(=O)O)NC(=O)[C@H](CCCCN)NC(=O)[C@H](CCC(=O)O)NC(=O)[C@H](CC(=O)O)NC(=O)[C@H](CCC(N)=O)NC(=O)[C@@H]1CCCN1C(=O)[C@H](NC(=O)[C@@H](NC(=O)[C@H](CCCCN)NC(=O)[C@H](CC(N)=O)NC(=O)[C@H](NC(=O)[C@H](CCSC)NC(=O)[C@@H](NC(=O)[C@@H](NC(=O)[C@H](CCC(=O)O)NC(=O)[C@H](CCC(N)=O)NC(=O)[C@@H](N)CC(=O)O)[C@@H](C)CC)[C@@H](C)O)[C@@H](C)CC)[C@H](C)O)[C@@H](C)CC)C(=O)N[C@@H](CC(C)C)C(=O)N[C@@H](Cc1ccccc1)C(=O)N[C@@H](Cc1ccc(O)cc1)C(=O)O
23,< 2,H-ITIEELFKSAIKTEEMKDNKY-OH
24,> 2,H-NDSNDFLKKYAIMGNSFDDG-OH
